pIC50: −log10 of the molar value.
Each molecule was assayed against human Cav2.2 (Homo sapiens, UniProt Q00975) (assay: Assessment of calcium channel activity using FLIPR (Ca2+ influx in IMR32 cells)). Conditions: not given.
Assay type: cell-based
Method: (i) In Vitro Methods—Assessment of Calcium Channel Activity Using FLIPR:
The IMR32 cells were maintained in MEM media containing 10% (v/v) FBS, 1% (v/v) antibiotic/antimitotic, 1% (v/v) sodium pyruvate and 1% (v/v) MEM NEAA. Following dissociation in 0.05% (v/v) trypsin/EDTA, cells were seeded into black 1×96-well plates (Corning Cellbind) at a density of 1−1.2×10^5 cells/well and incubated in the maintenance media above for 48 hours at 37° C. […] To determine the IC50 values, the percent inhibition of the compound at each concentration was determined relative to the activity in the absence of inhibitor, and data was fitted using non-linear regression sigmoidal dose response curve analysis with GraphPad Prism®.

Sequence of human Cav2.2 (Q00975 whole entry): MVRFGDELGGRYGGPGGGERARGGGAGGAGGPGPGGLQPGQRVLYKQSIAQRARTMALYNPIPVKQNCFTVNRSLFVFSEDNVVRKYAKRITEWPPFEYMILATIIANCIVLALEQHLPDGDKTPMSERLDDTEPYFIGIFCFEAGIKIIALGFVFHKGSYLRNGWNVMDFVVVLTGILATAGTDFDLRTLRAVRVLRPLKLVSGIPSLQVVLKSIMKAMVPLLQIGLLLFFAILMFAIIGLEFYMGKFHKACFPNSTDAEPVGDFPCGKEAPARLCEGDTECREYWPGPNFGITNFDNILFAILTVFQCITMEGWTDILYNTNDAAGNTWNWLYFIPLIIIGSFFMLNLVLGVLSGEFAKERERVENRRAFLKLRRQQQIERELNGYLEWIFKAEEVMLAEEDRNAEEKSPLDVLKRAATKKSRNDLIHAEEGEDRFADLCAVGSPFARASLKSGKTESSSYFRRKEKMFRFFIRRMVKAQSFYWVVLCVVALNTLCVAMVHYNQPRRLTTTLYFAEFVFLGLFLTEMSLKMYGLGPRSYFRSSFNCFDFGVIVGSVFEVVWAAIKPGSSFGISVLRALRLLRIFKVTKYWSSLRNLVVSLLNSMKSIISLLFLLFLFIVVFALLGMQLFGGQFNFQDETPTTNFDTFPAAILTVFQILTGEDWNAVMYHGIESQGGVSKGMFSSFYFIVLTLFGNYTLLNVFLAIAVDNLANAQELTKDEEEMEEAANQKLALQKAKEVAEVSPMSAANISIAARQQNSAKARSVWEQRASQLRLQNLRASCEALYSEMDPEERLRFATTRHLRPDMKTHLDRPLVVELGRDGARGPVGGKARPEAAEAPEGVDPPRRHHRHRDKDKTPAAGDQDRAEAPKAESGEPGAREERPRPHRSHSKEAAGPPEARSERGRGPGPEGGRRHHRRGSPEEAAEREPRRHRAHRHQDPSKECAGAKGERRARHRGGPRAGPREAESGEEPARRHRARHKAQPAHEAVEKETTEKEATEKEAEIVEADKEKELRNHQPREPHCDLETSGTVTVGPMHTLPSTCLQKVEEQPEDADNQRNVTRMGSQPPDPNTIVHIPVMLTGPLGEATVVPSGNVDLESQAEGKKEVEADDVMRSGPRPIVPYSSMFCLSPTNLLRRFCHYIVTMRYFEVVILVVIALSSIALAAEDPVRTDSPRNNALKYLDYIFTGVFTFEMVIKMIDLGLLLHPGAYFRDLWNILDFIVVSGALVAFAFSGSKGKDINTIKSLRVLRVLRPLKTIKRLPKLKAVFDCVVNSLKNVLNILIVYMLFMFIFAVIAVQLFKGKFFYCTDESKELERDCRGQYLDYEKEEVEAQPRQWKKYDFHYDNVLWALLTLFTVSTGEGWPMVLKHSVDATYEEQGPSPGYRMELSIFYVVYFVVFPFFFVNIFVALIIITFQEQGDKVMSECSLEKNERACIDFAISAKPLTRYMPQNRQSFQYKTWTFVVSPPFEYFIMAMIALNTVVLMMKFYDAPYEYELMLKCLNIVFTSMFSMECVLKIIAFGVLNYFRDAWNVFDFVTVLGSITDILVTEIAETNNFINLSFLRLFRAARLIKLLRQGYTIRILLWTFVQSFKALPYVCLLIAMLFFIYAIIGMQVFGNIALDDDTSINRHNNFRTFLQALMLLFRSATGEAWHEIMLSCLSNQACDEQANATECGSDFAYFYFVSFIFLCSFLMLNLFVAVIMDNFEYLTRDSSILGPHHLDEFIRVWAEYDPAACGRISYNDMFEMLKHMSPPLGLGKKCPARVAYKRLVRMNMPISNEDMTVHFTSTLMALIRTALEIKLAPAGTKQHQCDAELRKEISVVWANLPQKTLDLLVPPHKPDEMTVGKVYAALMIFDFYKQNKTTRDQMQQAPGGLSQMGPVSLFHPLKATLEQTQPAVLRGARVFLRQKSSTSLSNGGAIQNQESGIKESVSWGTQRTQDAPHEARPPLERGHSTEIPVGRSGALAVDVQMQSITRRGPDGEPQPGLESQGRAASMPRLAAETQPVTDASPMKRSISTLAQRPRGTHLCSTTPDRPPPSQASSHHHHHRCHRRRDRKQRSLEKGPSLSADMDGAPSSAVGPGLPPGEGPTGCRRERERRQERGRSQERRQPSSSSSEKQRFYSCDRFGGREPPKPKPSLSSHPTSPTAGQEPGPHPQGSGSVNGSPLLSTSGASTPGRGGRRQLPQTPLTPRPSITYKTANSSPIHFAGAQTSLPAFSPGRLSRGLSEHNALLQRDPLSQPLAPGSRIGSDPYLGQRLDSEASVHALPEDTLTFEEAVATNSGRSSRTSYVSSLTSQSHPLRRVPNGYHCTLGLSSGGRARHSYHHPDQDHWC
Sequence of human Cav2.2 (P54289 25-956 partner limits assumed): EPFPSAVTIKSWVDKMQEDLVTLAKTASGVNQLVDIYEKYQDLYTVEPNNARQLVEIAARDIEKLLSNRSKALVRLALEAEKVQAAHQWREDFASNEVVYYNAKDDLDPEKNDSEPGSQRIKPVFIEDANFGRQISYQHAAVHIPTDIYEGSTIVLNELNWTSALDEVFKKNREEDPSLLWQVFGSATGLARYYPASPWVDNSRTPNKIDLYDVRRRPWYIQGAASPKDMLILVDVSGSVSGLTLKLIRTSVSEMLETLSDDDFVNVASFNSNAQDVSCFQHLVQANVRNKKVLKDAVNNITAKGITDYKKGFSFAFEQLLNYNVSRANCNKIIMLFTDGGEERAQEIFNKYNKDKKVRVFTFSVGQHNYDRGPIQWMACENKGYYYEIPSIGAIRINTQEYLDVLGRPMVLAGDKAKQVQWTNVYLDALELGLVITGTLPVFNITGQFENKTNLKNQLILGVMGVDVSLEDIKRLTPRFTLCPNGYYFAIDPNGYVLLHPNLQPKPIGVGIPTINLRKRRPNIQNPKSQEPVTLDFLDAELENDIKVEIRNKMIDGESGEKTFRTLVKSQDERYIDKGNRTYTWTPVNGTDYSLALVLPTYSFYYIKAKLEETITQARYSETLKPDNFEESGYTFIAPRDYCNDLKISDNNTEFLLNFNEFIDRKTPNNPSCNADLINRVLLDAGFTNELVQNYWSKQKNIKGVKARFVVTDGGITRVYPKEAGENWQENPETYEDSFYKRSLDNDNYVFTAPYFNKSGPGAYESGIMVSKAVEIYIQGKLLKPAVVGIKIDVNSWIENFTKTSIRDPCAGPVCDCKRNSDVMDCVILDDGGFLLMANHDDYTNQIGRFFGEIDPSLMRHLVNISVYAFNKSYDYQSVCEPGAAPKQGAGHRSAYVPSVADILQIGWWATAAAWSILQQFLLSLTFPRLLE
Sequence of human Cav2.2 (P54289 957-1103 partner limits assumed): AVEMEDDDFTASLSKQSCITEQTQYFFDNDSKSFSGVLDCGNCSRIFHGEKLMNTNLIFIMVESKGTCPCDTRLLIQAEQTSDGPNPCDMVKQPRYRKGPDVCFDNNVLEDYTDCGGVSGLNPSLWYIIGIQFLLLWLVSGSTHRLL
Sequence of human Cav2.2 (P54284 whole entry partner): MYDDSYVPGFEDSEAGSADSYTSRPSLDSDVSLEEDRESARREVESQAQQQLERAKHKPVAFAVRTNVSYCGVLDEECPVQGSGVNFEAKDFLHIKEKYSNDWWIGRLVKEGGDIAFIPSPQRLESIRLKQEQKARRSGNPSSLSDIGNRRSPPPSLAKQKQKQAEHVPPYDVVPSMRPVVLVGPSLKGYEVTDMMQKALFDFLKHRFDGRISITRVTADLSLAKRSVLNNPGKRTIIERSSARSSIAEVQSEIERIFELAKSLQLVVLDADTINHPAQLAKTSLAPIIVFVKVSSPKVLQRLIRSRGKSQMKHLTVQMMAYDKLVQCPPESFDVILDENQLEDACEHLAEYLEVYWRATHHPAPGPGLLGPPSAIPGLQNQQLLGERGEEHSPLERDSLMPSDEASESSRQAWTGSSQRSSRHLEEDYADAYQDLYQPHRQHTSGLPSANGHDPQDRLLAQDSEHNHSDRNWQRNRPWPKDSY

Row | Compound | pIC50
1 | N[C@H]1CC[C@@H]2CN(c3ccc(C(F)(F)F)cc3)C[C@@H]21 [Example 607, (3aR,4S,6aS)-2-[4-(trifluoromethyl)phenyl]octahydrocyclopenta[c]pyrrol-4-amine] | 5.19
2 | FC(F)(F)c1cccc(N2C[C@H]3CC[C@H](NCc4c[nH]c5ccccc45)[C@H]3C2)n1 [Example 684, (3aR,4S,6aS)-N-(1H-indol-3-ylmethyl)-2-[6-(trifluoromethyl)pyridin-2-yl]octahydrocyclopenta[c]pyrrol-4-amine] | 5.98
3 | CC(C)C(C(=O)N[C@@H]1CC[C@@H]2CN(Cc3ccccc3)C[C@@H]21)c1ccccc1 (relative stereo) [Example 5, N-[(3aR*,4R*,6aS*)-2-benzyloctahydrocyclopenta[c]pyrrol-4-yl]-3-methyl-2-phenylbutanamide] | 5.84
4 | O=C(N[C@H]1CC[C@@H]2CN(c3cccc(C(F)(F)F)n3)C[C@@H]21)[C@@H]1C[C@H](F)CN1 [Example 596, (4S)-4-fluoro-N-{(3aR,4S,6aS)-2-[6-(trifluoromethyl)pyridin-2-yl]octahydrocyclopenta[c]pyrrol-4-yl}-L-prolinamide] | 5.35

Same assay, conditions: read-out: IC50 (μM) or percent inhibition (* indicates 3 minute incubation, otherwise 60 minute); IC50; 60 minute pre-incubation with compound; IMR32 cells, 80 mM KCl depolarization

Row | Compound | IC50 [µM]
5 | C[C@H](C(=O)N[C@@H]1CC[C@H]2CN(Cc3ccccc3)C[C@H]21)c1cccc(C(=O)c2ccccc2)c1 (relative stereo) [Example 13, (2S)-2-(3-benzoylphenyl)-N-[(3aS*,4R*,6aR*)-2-benzyloctahydrocyclopenta[c]pyrrol-4-yl]propanamide] | 23.6
6 | CC(C)C[C@H](NC(=O)NC(C)(C)C)C(=O)N[C@@H]1CC[C@H]2CN(Cc3cccc(C(F)(F)F)c3)C[C@H]21 [Example 180, N^2-[(tert-butylamino)carbonyl]-N^1-{(3aS,4R,6aR)-2-[3-(trifluoromethyl)benzyl]octahydrocyclopenta[c]pyrrol-4-yl}-L-leucinamide] | 1.83
7 | CC(C)C(C(=O)N[C@@H]1CC[C@H]2CN(Cc3ccccc3)C[C@H]21)c1ccccc1 (stereo partly drawn) [Example 18, N-[(3aS,4R,6aR)-2-benzyloctahydrocyclopenta[c]pyrrol-4-yl]-3-methyl-2-phenylbutanamide] | 2.68
8 | O=C(N[C@@H]1CC[C@H]2CN(CCCC(c3ccc(F)cc3)c3ccc(F)cc3)C[C@H]21)C(C1CCCCC1)C1CCCCC1 [Example 81, N-{(3aS,4R,6aR)-2-[4,4-bis(4-fluorophenyl)butyl]octahydrocyclopenta[c]pyrrol-4-yl}-2,2-dicyclohexylacetamide] | 1.13
9 | O=C(N[C@H]1CC[C@H]2CN(Cc3ccncc3)C[C@H]21)C(C1CCCCC1)C1CCCCC1 [Example 72, 2,2-dicyclohexyl-N-[(3aS,4S,6aR)-2-(pyridin-4-ylmethyl)octahydrocyclopenta[c]pyrrol-4-yl]acetamide] | 3.23
10 | CC(C)C[C@H](N)C(=O)N[C@H]1CC[C@H]2CN(Cc3cccc(C(F)(F)F)c3)C[C@H]21 (stereo in doubt) [Example 158, N^1-{(3aS*,4S*,6aR*)-2-[3-(trifluoromethyl)benzyl]octahydrocyclopenta[c]pyrrol-4-yl}-L-leucinamide] | 3.51
11 | CC(C)C(C(=O)N[C@H]1CC[C@@H]2CN(CCC(c3ccc(F)cc3)c3ccc(F)cc3)C[C@@H]21)c1ccccc1 (stereo partly drawn) [Example 117, N-{(3aR,4S,6aS)-2-[3,3-bis(4-fluorophenyl)propyl]octahydrocyclopenta[c]pyrrol-4-yl}-3-methyl-2-phenylbutanamide] | 0.88
12 | O=C(N[C@H]1CC[C@H]2CN(CCCc3ccccc3)C[C@H]21)C(C1CCCCC1)C1CCCCC1 [Example 69, 2,2-dicyclohexyl-N-[(3aS,4S,6aR)-2-(3-phenylpropyl)octahydrocyclopenta[c]pyrrol-4-yl]acetamide] | 1.69
13 | CCN(CC)[C@H]1CC[C@@H]2CN(S(=O)(=O)c3ccc(C(F)(F)F)cc3)C[C@@H]21 [Example 289, (3aR,4S,6aS)-N,N-diethyl-2-{[4-(trifluoromethyl)phenyl]sulfonyl}octahydrocyclopenta[c]pyrrol-4-amine] | 9.75

From US8691865B2 (AbbVie Inc., priority 2008, dated 2014)
